For assay [1], the target named is T1, Vasopressin V1a receptor (Homo sapiens, UniProt P37288). Description: Inhibition of human vasopressin V1a receptor expressed in COS7 cells by HTRF-FRET assay using 384-well plate membranes. In kind it is cell-based. The following applies: cos-7. (In general: Time-resolved FRET reads energy transfer from a long-lived donor to a nearby acceptor.)
Target sequence in this assay (P37288 whole entry): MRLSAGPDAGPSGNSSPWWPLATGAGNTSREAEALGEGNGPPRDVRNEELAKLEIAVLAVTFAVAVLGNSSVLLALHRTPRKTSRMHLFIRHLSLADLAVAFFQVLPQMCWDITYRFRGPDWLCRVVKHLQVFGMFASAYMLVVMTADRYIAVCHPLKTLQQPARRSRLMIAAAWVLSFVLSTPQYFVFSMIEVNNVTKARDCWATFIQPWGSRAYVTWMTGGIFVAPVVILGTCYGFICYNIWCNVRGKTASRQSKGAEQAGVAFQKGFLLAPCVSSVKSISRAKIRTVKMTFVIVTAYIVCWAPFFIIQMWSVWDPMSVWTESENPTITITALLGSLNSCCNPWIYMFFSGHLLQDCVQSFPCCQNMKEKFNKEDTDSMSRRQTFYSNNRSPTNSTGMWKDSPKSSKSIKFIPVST
The target of assay [2] is T1, Vasopressin V1a receptor. Description: Inhibition of human vasopressin V1a receptor expressed in COS7 cells by HTRF-FRET assay using 96-well plate membranes. Conditions: cos-7. In kind it is cell-based.
Target sequence in this assay (P37288 whole entry): as above
Assay [3] addresses T1, Vasopressin V1a receptor. Description: Inhibition of human vasopressin V1a receptor expressed in CHO cells by polarisation binding assay using 384-well plate membranes. In kind it is cell-based.
Target sequence in this assay (P37288 whole entry): as above
Assay [4] concerns the target T1, Vasopressin V1a receptor. The assay is described as follows: Inhibition of human vasopressin V1a receptor expressed in COS7 cells by HTRF-FRET assay using 96-well plate cells. In kind it is cell-based. Conditions: cos-7.
Target sequence in this assay (P37288 whole entry): as above
Assay [5] has as its target T1, Vasopressin V1a receptor. The assay is described as follows: Inhibition of human vasopressin V1a receptor expressed in CHO cells by polarisation binding assay using 96-well plate membranes. In kind it is cell-based.
Target sequence in this assay (P37288 whole entry): as above
The target of another assay is T2, Oxytocin receptor (Homo sapiens, UniProt P30559).
T2 sequence (P30559 whole entry): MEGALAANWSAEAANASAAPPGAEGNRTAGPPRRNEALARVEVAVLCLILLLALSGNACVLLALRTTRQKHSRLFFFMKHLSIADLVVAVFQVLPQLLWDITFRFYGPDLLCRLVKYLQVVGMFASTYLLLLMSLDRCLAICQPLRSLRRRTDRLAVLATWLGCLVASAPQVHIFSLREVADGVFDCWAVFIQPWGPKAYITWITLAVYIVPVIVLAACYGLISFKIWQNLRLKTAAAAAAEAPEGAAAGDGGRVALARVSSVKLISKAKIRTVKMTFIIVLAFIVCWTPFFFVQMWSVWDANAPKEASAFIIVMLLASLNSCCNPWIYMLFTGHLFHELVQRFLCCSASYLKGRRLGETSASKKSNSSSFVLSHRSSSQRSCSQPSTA
Description: Displacement of [3H]AVP from human oxytocin receptor expressed in CHO cells. In kind it is cell-based.

In assay [6] the target is T1, Vasopressin V1a receptor. The assay is described as follows: Antagonist activity at human vasopressin V1a receptor expressed in CHO cells assessed as AVP-induced inositol monophosphate accumulation by IP-one ELISA test. In kind it is functional, cell-based. In general terms: ELISA stands for enzyme-linked immunosorbent assay.
Target sequence in this assay (P37288 whole entry, looked up): as the sequence (P37288 whole entry) above
Assay [7] has as its target T3, Oxytocin receptor (Homo sapiens) (UniProt P30559).
T3 sequence (whole entry): T2 sequence (P30559 whole entry)
The assay is described as follows: Agonist activity at human oxytocin receptor expressed in CHO cells assessed as accumulation of inositol phosphate up to 1 uM. In kind it is functional, cell-based.

The target of a further assay is T4, Vasopressin V1b receptor (Homo sapiens, UniProt P47901).
T4 sequence (P47901 whole entry): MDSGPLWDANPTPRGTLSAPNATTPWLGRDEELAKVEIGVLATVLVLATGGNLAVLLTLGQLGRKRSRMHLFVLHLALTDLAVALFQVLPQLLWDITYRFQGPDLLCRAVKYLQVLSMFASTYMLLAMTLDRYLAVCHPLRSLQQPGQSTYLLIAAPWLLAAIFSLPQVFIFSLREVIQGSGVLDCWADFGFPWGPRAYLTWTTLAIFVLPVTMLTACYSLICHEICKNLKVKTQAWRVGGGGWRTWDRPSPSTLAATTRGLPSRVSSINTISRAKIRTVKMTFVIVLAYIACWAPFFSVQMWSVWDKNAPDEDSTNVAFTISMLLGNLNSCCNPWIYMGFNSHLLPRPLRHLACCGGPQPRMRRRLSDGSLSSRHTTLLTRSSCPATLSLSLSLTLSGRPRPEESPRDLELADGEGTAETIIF
The assay is described as follows: Displacement of [3H]AVP from human vasopressin V1b receptor expressed in CHO cells. In kind it is cell-based. (Displacement assays read how much labelled ligand stays bound in the presence of the test substance.)

The target in assay [8] is T1, Vasopressin V1a receptor. The assay is described as follows: Agonist activity at human vasopressin V1a receptor expressed in CHO cells assessed as accumulation of inositol phosphate up to 1 uM. In kind it is functional, cell-based.
Target sequence in this assay (P37288 whole entry, looked up): as the sequence (P37288 whole entry) above
The target in assay [9] is T3, Oxytocin receptor (Homo sapiens). The assay is described as follows: Antagonist activity at oxytocin receptor expressed in CHO cells assessed as AVP-induced inositol monophosphate accumulation by IP-one ELISA test. In kind it is functional, cell-based.
Another assay has as its target Vasopressin V2 receptor (Homo sapiens, UniProt P30518). Description: Displacement of [3H]AVP from human vasopressin V2 receptor expressed in CHO cells. In kind it is cell-based.
The target in assay [10] is T1, Vasopressin V1a receptor. The assay is described as follows: Displacement of [3H]AVP from human vasopressin V1a receptor expressed in CHO cells. In kind it is cell-based.
Target sequence in this assay (P37288 whole entry): as the sequence (P37288 whole entry) above

The source made the active and inactive calls. The calls are words filed in the database; no cut-off is given here. Non-standard residues stand in square brackets, D forms with d. Residues, ends and D or L forms follow the SMILES beside them. *: point of attachment. X1 = O=C(Cc1ccc(O)cc1)*

Broadly, the Ki is a dissociation constant, usually derived from enzyme kinetics or from competition with a known ligand. The low end stands for a stronger hold on the target, the high end for a looser hold on the target.

Sequence of Vasopressin V2 receptor (P30518 whole entry): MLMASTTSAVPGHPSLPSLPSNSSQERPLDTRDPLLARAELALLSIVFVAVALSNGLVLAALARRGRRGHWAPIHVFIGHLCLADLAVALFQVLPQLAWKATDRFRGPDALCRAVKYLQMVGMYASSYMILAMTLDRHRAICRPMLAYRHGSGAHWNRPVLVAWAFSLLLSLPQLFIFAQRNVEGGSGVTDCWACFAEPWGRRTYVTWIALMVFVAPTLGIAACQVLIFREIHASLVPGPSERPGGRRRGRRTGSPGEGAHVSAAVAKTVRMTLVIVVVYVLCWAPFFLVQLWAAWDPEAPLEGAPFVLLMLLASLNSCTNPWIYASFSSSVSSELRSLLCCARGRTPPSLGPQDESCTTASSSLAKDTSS

Consider `COc1ccc(C[C@@H](NC(=O)Cc2ccc(O)cc2)C(=O)N[C@@H](Cc2ccccc2)C(=O)N[C@@H](CCC(N)=O)C(=O)N[C@@H](CC(N)=O)C(=O)N[C@@H](CCCN=C(N)N)C(=O)N2CCC[C@H]2C(=O)N[C@@H](CCCN=C(N)N)C(N)=O)cc1` (X1-[dY](Me)FQNRPR-NH2), for which the Ki on Vasopressin V1a receptor [1] came to 0.21 nM; on Vasopressin V1a receptor [2], 0.21 nM; at Vasopressin V1a receptor [3], 0.032 nM; on Vasopressin V1a receptor [4], 0.28 nM; at Vasopressin V1a receptor [5], 0.036 nM.
In the case of `CC1CC(C)(C)Nc2c1cc1c(c2S(=O)(=O)O)OC2C(=C1c1c(Cl)c(SCC(=O)NCCCCCC(=O)N(C(=O)[C@H]3CCN(C(=O)[C@H](CCCNC(=N)N)NC(=O)[C@H](CC(N)=O)NC(=O)[C@H](CCC(N)=O)NC(=O)[C@H](Cc4ccccc4)NC(=O)[C@@H](Cc4ccc(O)cc4)N(C)C(=O)CCc4ccc(O)cc4)C3)[C@@H](CCCCN)C(N)=O)c(Cl)c(Cl)c1C(=O)O)CC1C(=NC(C)(C)CC1C)C2S(=O)(=O)O` (stereo partly drawn), the Ki on Oxytocin receptor is 1.04 nM; at Vasopressin V1b receptor, 100 nM; at Vasopressin V2 receptor it was above 1000 nM; on Vasopressin V1a receptor [10], 0.09 nM. Further, the Kinact on Vasopressin V1a receptor [6] turned out to be 0.28 nM; in assay [9], 0.17 nM. Moreover, the result (in assay [7]; at Vasopressin V1a receptor [8]) was inactive.

The record behind these values is ChEMBL document CHEMBL1148807 (J Med Chem, 2007).
